From patent US20260250290A1 (BRISTOL-MYERS SQUIBB COMPANY, priority 2023, published 2026) come the findings set out here.

Counter-ions that a name gives are not always drawn.

For the test, the target named is T1, full length SGK1 (Homo sapiens, UniProt O00141).
T1 construct: 125 μM full length SGK1 (Life Technologies Part #PR7358A); purchased Life Technologies PR7358A
T1 sequence (O00141 1-431): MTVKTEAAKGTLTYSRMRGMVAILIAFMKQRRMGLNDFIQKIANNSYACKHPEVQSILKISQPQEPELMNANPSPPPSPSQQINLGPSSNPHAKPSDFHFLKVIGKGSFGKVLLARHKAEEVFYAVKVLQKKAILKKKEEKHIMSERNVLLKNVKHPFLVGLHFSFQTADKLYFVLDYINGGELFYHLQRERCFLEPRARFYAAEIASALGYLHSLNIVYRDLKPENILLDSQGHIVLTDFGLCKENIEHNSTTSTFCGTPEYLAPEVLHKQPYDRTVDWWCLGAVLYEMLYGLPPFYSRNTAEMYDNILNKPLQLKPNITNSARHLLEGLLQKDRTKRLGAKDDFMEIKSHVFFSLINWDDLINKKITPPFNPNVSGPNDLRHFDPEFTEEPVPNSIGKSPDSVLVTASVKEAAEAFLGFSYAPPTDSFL
The test can be described thus: SGK1 inhibition Assay A (Caliper LabChip electrophoretic separation of fluorescent peptide substrate and phosphorylated product). The format is biochemical. The conditions noted are these: Assay A; 20 μM ATP, 40 min incubation; read-out: SGK1 IC50.

Turning to `Nc1ncnn2c(C3=CCN(C(=O)C4CCNCC4)C3)cc(N3CCC[C@@H](NC(=O)c4ccc(Cl)s4)C3)c12` [Example 894, (R)-N-(1-(4-amino-7-(1-(piperidine-4-carbonyl)-2,5-dihydro-1H-pyrrol-3-yl)pyrrolo[2,1-f][1,2,4]triazin-5-yl)piperidin-3-y1)-5-chlorothiophene-2-carboxamide], the concentration for half-maximal inhibition (IC50) (as a rule, the concentration that inhibits the measured activity by half) is 14 nM. As for `Nc1ncnn2c(C3=CCN(C(=O)[C@@H]4CCOC4)C3)cc(N3CCC[C@@H](NC(=O)c4ccc(Cl)s4)C3)c12` [Example 895, N-((R)-1-(4-amino-7-(1-((R)-tetrahydrofuran-3-carbonyl)-2,5-dihydro-1H-pyrrol-3-yl)pyrrolo[2,1-f][1,2,4]triazin-5-yl)piperidin-3-y1)-5~ chlorothiophene-2-carboxamide], the half-inhibitory concentration (IC50) was 5 nM.

As for `Nc1ncnn2c(C3=CCN(C(=O)[C@@H]4CCNC4)C3)cc(N3CCC[C@@H](NC(=O)c4ccc(Cl)s4)C3)c12` [Example 896, N-((R)-1-(4-amino-7-(1-((R)-pyrrolidine-3-carbonyl)-2,5-dihydro-1H-pyrrol-3-yl)pyrrolo[2,1-f][1,2,4]triazin-5-yl)piperidin-3-y1)-5-chlorothiophene-2-carboxamide, TFA], the IC50 amounted to 10 nM. The same measure for `Nc1ncnn2c(C3=CCN(C(=O)C4CCCCO4)C3)cc(N3CCC[C@@H](NC(=O)c4ccc(Cl)s4)C3)c12` (stereo partly drawn) [Example 897, N-((3R)-1-(4-amino-7-(1-(tetrahydro-2H-pyran-2-carbony1)-2,5-dihydro-1H-pyrrol-3-y1)pyrrolo[2,1-f][1,2,4]triazin-5-yl)piperidin-3-y1)-5-chlorothiophene-2-carboxamide]: 8 nM; for `Nc1ncnn2c(C3=CCN(C(=O)C4CCOCC4)C3)cc(N3CCC[C@@H](NC(=O)c4ccc(Cl)s4)C3)c12` [Example 898, (R)-N-(1-(4-amino-7-(1-(tetrahydro-2H-pyran-4-carbony1)-2,5-dihydro-1H-pyrrol-3-yl)pyrrolo[2,1-f][1,2,4]triazin-5-y1)piperidin-3-y1)-5-chlorothiophene-2-carboxamide]: 10 nM; for `Nc1ncnn2c(C3=CCN(C(=O)c4ccno4)C3)cc(N3CCC[C@@H](NC(=O)c4ccc(Cl)s4)C3)c12` [Example 899, (R)-N-(1-(4-amino-7-(1-(isoxazole-5-carbony1)-2,5-dihydro-1H-pyrrol-3-y1)pyrrolo[2,1-f][1,2,4]triazin-5-y1)piperidin-3-y1)-5-chlorothiophene-2-carboxamide]: 12 nM. `Nc1ncnn2c(C3=CCN(C(=O)c4ccccn4)C3)cc(N3CCC[C@@H](NC(=O)c4ccc(Cl)s4)C3)c12` [Example 900, (R)-N-(1-(4-amino-7-(1-picolinoy1-2,5-dihydro-1H-pyrrol-3-yl)pyrrolo[2,1-f][1,2,4]triazin-5-y1)piperidin-3-y1)-5-chlorothiophene-2-carboxamide]: the 50% inhibitory concentration (IC50) is 12 nM.

In the case of `Nc1ncnn2c(C3=CCN(C(=O)[C@@H]4CCCNC4)C3)cc(N3CCC[C@@H](NC(=O)c4ccc(Cl)s4)C3)c12` [Example 901, N-((R)-1-(4-amino-7-(1-((R)-piperidine-3-carbonyl)-2,5-dihydro-1H-pyrrol-3-y1)pyrrolo[2,1-f][1,2,4]triazin-5-y1)piperidin-3-y1)-5-chlorothiophene-2-carboxamide], the IC50 was 29 nM. The same measure for `Nc1ncnn2c(C3=CCN(C(=O)c4ccncc4)C3)cc(N3CCC[C@@H](NC(=O)c4ccc(Cl)s4)C3)c12` [Example 902, (R)-N-(1-(4-amino-7-(1-isonicotinoy1-2,5-dihydro-1H-pyrrol-3-yl)pyrrolo[2,1-f][1,2,4]triazin-5-yl)piperidin-3-y1)-5-chlorothiophene-2-carboxamide]: 28 nM. For `Nc1ncnn2c(C3=CCN(C(=O)[C@@H]4CCCO4)C3)cc(N3CCC[C@@H](NC(=O)c4ccc(Cl)s4)C3)c12` [Example 903, N-((R)-1-(4-amino-7-(1-((S)-tetrahydrofuran-2-carbony1)-2,5-dihydro-1H-pyrrol-3-yl)pyrrolo[2,1-f][1,2,4]triazin-5-yl)piperidin-3-y1)-5-chlorothiophene-2-carboxamide], the half-maximal inhibitory concentration (IC50) amounted to 8 nM. The same measure for `Nc1ncnn2c(C3=CCN(C(=O)C4CCCS(=O)(=O)C4)C3)cc(N3CCC[C@@H](NC(=O)c4ccc(Cl)s4)C3)c12` (stereo partly drawn) [Example 904, N-((3R)-1-(4-amino-7-(1-(1,1-dioxidotetrahydro-2H-thiopyran-3-carbonyl)-2,5-dihydro-1H-pyrrol-3-yl)pyrrolo[2,1-f][1,2,4]triazin-5-y1)piperidin-3-y1)-5-chlorothiophene-2-carboxamide]: 12 nM. The value for `Nc1ncnn2c(C3=CCN(C(=O)C4CCS(=O)(=O)C4)C3)cc(N3CCC[C@@H](NC(=O)c4ccc(Cl)s4)C3)c12` (stereo partly drawn) [Example 905, N-((3R)-1-(4-amino-7-(1-(1,1-dioxidotetrahydrothiophene-3-carbonyl)-2,5-dihydro-1H-pyrrol-3-yl)pyrrolo[2,1-f][1,2,4]triazin-5-yl)piperidin-3-y1)-5-chlorothiophene-2-carboxamide] was 11 nM; that for `CN(C)CCOc1cc(Cl)sc1C(=O)N[C@@H]1CCCN(c2cc(C3=CCN(C(=O)c4cnco4)C3)n3ncnc(N)c23)C1` [Example 907, (R)-N-(1-(4-amino-7-(1-(oxazole-5-carbonyl)-2,5-dihydro-1H-pyrrol-3-yl)pyrrolo[2,1-f][1,2,4]triazin-5-yI)piperidin~3-y1)-5-chloro-3-(2-(dimethylamino)ethoxy)thiophene-2-carboxamide] was 4 nM. The value for `CN(C)CCOc1cc(Cl)sc1C(=O)N[C@@H]1CCCN(c2cc(C3=CCN(C(=O)c4ncco4)C3)n3ncnc(N)c23)C1` [Example 908, (R)-N-(1-(4-amino-7-(1-(oxazole-2-carbonyl)-2,5-dihydro-1H-pyrrol-3-yl)pyrrolo[2,1-f][1,2,4]triazin-5-yl)piperidin-3-y1)-5-chloro-3-(2-(dimethylamino)ethoxy)thiophene-2-carboxamide] was 3 nM. Turning to `CN(C)CCOc1cc(Cl)sc1C(=O)N[C@@H]1CCCN(c2cc(C3=CCN(C(=O)C4CCCOC4)C3)n3ncnc(N)c23)C1` (stereo partly drawn) [Example 909, N-((3R)-1-(4-amino-7-(1-(tetrahydro-2H-pyran-3-carbonyl)-2,5-dihydro-1H-pyrrol-3~yl)pyrrolo[2,1-f][1,2,4]triazin-5-y1)piperidin-3-y1)-5-chloro-3-(2-(dimethylamino)ethoxy)thiophene-2-carboxamide], the IC50 came to 14 nM. In the case of `CC(=O)N1CC=C(c2cc(OCCN(C)C)c(C(=O)N[C@@H]3CCCN(c4cc(C5=CCN(C(C)=O)C5)n5ncnc(N)c45)C3)s2)C1` [Example 910, (R)-5-(1-acetyl-2,5-dihydro-1H-pyrrol-3-yl)-N-(1-(7-(1-acetyl-2,5-dihydro-1H-pyrrol-3-yl)-4-aminopyrrolo[2,1-f][1,2,4]triazin-5-yl)piperidin-3-yl)-3-(2-(dimethylamino)ethoxy)thiophene-2-carboxamide], the IC50 is 59 nM. The value for `COC(=O)CN1CC=C(c2cc(N3CCC[C@@H](NC(=O)c4ccc(Cl)s4)C3)c3c(N)ncnn23)C1` [Example 911, methyl (R)-2-(3-(4-amino-5-(3-(5-chlorothiophene-2-carboxamido)piperidin-1-yl)pyrrolo[2,1-f][1,2,4]triazin-7-yl)-2,5-dihydro-1H-pyrrol-1-yl)acetate] was 70 nM; that for `Nc1ncnn2c(C3=CCN(CC(=O)O)C3)cc(N3CCC[C@@H](NC(=O)c4ccc(Cl)s4)C3)c12` [Example 912, (R)-2-(3-(4-amino-5-(3-(5-chlorothiophene-2-carboxamido)piperidin-1-yl)pyrrolo[2,1-f][1,2,4]triazin-7-yl)-2,5-dihydro-1H-pyrrol-1-yl)acetic acid] was 214 nM. The value for `NC(=O)N1CC=C(c2cc(N3CCC[C@@H](NC(=O)c4ccc(Cl)s4)C3)c3c(N)ncnn23)C1` [Example 913, (R)-3-(4-amino-5-(3-(5-chlorothiophene-2-carboxamido)piperidin-1-yl)pyrrolo[2,1-f][1,2,4]triazin-7-yl)-2,5-dihydro-1H-pyrrole-1-carboxamide] was 3 nM. `CC(=O)NCC(=O)N1CC=C(c2cc(N3CCC[C@@H](NC(=O)c4ccc(Cl)s4)C3)c3c(N)ncnn23)C1` [Example 914, (R)—N-(1-(7-(1-(acetylglycyl)-2,5-dihydro-1H-pyrrol-3-yl)-4-aminopyrrolo[2,1-f][1,2,4]triazin-5-yl)piperidin-3-yl)-5-chlorothiophene-2-carboxamide]: the IC50 came out at 3 nM.

With `CC(=O)NCCC(=O)N1CC=C(c2cc(N3CCC[C@@H](NC(=O)c4ccc(Cl)s4)C3)c3c(N)ncnn23)C1` [Example 915, (R)—N-(1-(7-(1-(3-acetamidopropanoyl)-2,5-dihydro-1H-pyrrol-3-yl)-4-aminopyrrolo[2,1-f][1,2,4]triazin-5-yl)piperidin-3-yl)-5-chlorothiophene-2-carboxamide], the IC50 stood at 10 nM.

In the case of `CC(=O)N1CC=C(c2cc(N3CCCC(NC(=O)c4sc(C(F)F)cc4OC4CCN(C(C)C)CC4)C3)c3c(N)ncnn23)C1` (stereo not drawn) [compound 442], the IC50 was 14 nM. Take “(R)-2-(1-(7-(1-acetyl-2,5- dihydro-1H-pyrrol-3-yl)- 4-aminopyrrolo[2,1- f][1,2,4]triazin-5- yl)piperidin-3-yl)-1,1,3,3- tetramethylguanidine [Example 724]”: the half-inhibitory concentration (IC50) was determined as 15 nM. Turning to “(R)-3-(4-amino-5-(3-(pyrazine-2-carboxamido)piperidin-1-yl)pyrrolo[2,1-f][1,2,4]triazin-7-yl)-2,5-dihydro-1H-pyrrole-1-carboxylate [Example 540]”, the half-maximal inhibitory concentration (IC50) came to 216 nM.
